# Measurements: ChEMBL document CHEMBL1127207, “Synthesis of ingenol analogs wth affinity for protein kinase C” (Bioorg Med Chem Lett, 1993)
# Experiments:
# [1] = molecular target: T1, Protein kinase C alpha type (Homo sapiens, UniProt P17252); test: Displacement of [3H]PDBU from protein kinase C-alpha (Inactive)
# [2] = molecular target: T1, Protein kinase C alpha type; test: Displacement of [3H]PDBU from protein kinase C-alpha
# [3] = molecular target: T1, Protein kinase C alpha type; test: Displacement of [3H]-PDBU from protein kinase C-alpha
# Mus musculus = test: Tested in vivo for inflammatory potency in the mouse ear; type: functional
Compound,Ki [2] [nM],Ki [3] [nM],Potency (Mus musculus) [nM],also measured
CC1=C[C@@]23CCCC[C@@H](C=C(CO)[C@@H](O)[C@]2(O)[C@H]1O)C3=O,–,–,–,Ki [1]: Not Active
O=C(O[C@H]1CCC23CCCC[C@H](C=C(CO)C[C@H]12)C3=O)c1ccccc1,165,–,–,–
CCCCC(=O)O[C@@H]1[C@@H](C)[C@@]2(O)[C@@H](C=C(CO)C[C@]3(O)C(=O)C(C)=C[C@@H]23)[C@@H]2C(C)(C)[C@]12OC(=O)CCCC,–,0.54,0.067,–
CC1=CC23C(=O)[C@@H](C=C(CO)[C@@H](O)[C@]2(O)[C@H]1O)[C@H]1[C@@H](C[C@H]3C)C1(C)C,–,240,–,–
CC1=CC23C(=O)[C@@H](C=C(COC(=O)c4ccccc4)[C@@H](O)[C@]2(O)[C@H]1OC(=O)c1ccccc1)[C@H]1[C@@H](C[C@H]3C)C1(C)C,–,–,0.054,–
CC1=CC23C(=O)[C@@H](C=C(CO)[C@@H](O)[C@]2(O)[C@H]1OC(=O)c1ccccc1)[C@H]1[C@@H](C[C@H]3C)C1(C)C,0.14,–,–,–
